One may read the IC50 as the midpoint of a concentration-inhibition curve.

We go through 12 compounds from paper PMC5359624, “A structure- and chemical genomics-based approach for repositioning of drugs against VCP/p97 ATPase” (Scientific Reports, 2017).

Data set [1] relates to UbG76V-GFP (p97-dependent substrate). Put plainly: UbG76V-GFP degradation assay (dual-reporter HeLa cell line). It counts as cell-based. The conditions noted are these: 160 min, HeLa dual-reporter cells. On the procedure: (§1) First, the activities of these compounds against VCP/p97 in a cell-based degradation assay[31] were evaluated. For this purpose, we used a dual-reporter system to monitor the ubiquitin-proteasome system (UPS) and VCP/p97 function in mammalian cells. This system comprises an ubiquitin fusion degradation (UFD) reporter Ub^G76V-GFP and the oxygen-dependent degradation domain of HIF1α fused to luciferase (ODD-Luc), a non-ERAD substrate for proteasomal degradation. Measurement of GFP and luciferase activity in response to a treatment allows to assess the effect on p97-dependent and p97-independent proteolysis.
(§2) A dual-reporter stable HeLa cell line was generated to monitor UPS function in mammalian cells. A ubiquitin fusion degradation (UFD) reporter Ub^G76V-GFP and an oxygen-dependent degradation domain of HIF1α fused to luciferase (ODD-Luc). […] Cells were seeded on 384-well plates (3000 cells/well) and grown for 18 h. Cells were treated with modified DMEM (without phenol red, folic acid, riboflavin, and vitamin B12) containing MG132 (4 μM) for 1 h and washed twice with pre-warmed PBS. […] Plates were imaged on the ImageXpress Micro microscope (Molecular Devices) after 160 min. Luciferase activity were measured by adding D-Luciferin (10 μl of 2.5 mg/mL in PBS) into each well containing 38 μl of medium and incubated at room temperature for 10 min. Use Synergy Neo (BioTek) to read Luciferase signal.

Data set [2] concerns ODD-Luc (p97-independent proteasome substrate). The experiment in a line: ODD-Luc degradation assay (dual-reporter HeLa cell line). The data set is classed as cell-based. To be noted: HeLa dual-reporter cells. As to the method:
as §1, §2

The test system of data set [3] is VCP. Also noted: method as in PMID 23892893. The conditions noted are these: read-out: Experimental IC50; cited from earlier work.
On the set-up of data set [4]: method as in PMID 23245311. To be noted: oral administration in mice; cited from earlier work.
Data set [5] deals with E305Q VCP/p97 ATPase (Homo sapiens, UniProt P55072, E305Q). The experiment in a line: In vitro ATPase assay, E305Q (D1 Walker B mutant, D2-active). The data set is classed as biochemical. To be noted: for IC50: 200 μM ATP, 8-dose titration. An excerpt: (§3) In order to test direct inhibition of VCP/p97 ATPase activity by these compounds, we performed in vitro ATPase assays of the five UPS and VCP/p97 perturbing compounds to evaluate their inhibitory activity against VCP/p97.

The target of data set [6] is E578Q VCP/p97 ATPase (Homo sapiens, UniProt P55072, E578Q). The experiment in a line: In vitro ATPase assay, E578Q (D2 Walker B mutant, D1-active). The data set is classed as biochemical. To be noted: for IC50: 200 μM ATP, 8-dose titration.
From the text: as §3

The target of data set [7] is WT VCP/p97 ATPase (Homo sapiens, UniProt P55072). Put plainly: In vitro ATPase assay, WT VCP/p97. The conditions noted are these: 200 μM ATP, 8-dose titration. It counts as biochemical.
From the text: as §3

For data set [8] the following is noted: cited from earlier work.
For data set [9], the system named is NSCLC cells. Also noted: method as in PMID 27333030. The conditions noted are these: sub-micromolar concentrations; cited from earlier work.
Data set [10] relates to tumor growth. To be noted: 50 mg/kg, mice; cited from earlier work.

“And” between values parts separate entries of the source, which are not always exact repeats. Equal entries are not always repeated. Residues, ends and D or L forms follow the SMILES beside them. *: point of attachment. Cbz = O=C(OCc1ccccc1)*

Sequence of WT VCP/p97 ATPase (P55072 whole entry): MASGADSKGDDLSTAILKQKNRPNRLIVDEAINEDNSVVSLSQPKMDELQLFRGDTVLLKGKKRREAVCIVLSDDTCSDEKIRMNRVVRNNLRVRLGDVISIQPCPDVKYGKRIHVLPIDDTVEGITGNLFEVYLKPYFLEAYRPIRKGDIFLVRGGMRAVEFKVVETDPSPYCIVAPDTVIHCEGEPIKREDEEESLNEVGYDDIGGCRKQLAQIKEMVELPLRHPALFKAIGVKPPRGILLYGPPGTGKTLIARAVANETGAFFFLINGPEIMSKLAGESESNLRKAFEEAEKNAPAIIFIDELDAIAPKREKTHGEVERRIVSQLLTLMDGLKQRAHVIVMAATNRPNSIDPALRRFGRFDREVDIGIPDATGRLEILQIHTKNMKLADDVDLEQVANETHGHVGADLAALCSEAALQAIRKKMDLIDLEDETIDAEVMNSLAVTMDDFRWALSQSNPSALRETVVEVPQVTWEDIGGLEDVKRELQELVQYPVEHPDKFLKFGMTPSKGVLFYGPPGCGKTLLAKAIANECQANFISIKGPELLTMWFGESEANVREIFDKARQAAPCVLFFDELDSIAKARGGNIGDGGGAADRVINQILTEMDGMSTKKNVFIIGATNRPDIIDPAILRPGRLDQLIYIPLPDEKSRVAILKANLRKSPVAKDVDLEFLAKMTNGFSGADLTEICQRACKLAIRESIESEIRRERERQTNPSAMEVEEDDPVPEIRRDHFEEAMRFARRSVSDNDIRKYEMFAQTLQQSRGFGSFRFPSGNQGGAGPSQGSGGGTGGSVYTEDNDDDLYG
Sequence of E305Q VCP/p97 ATPase (P55072 whole entry E305Q): as the sequence (P55072 whole entry) above, with E305Q counted along it
Sequence of E578Q VCP/p97 ATPase (P55072 whole entry E578Q): as the sequence (P55072 whole entry) above, with E578Q counted along it

For `O=C(Nc1ccc([N+](=O)[O-])cc1Cl)c1cc(Cl)ccc1O` [Niclosamide], the IC50 in [1] (Homo sapiens) and in data set [2] (Homo sapiens) was over 40 µM throughout.
As for `CC(C)C[C@@H](C=O)NC(=O)[C@H](CC(C)C)NC(=O)[C@H](CC(C)C)NC(=O)OCc1ccccc1` [MG132] (Cbz-Leu-Leu-Leu-aldehyde), the IC50 came out at 1.2 µM in data set [1] (Homo sapiens) and 4.4 µM in data set [2] (Homo sapiens).
For NMS-862, the IC50 in data set [3] is 2.66 µM.
For the compound `Cc1cc(OCc2nnc(SC3CCCC3)n2-c2cccnc2)ccc1-c1ccc(S(C)(=O)=O)cc1` [NMS-873], the IC50 in data set [3] was 0.03 µM; in [1], 1.4 µM; in data set [2] (Homo sapiens), over 40 µM. Moreover, in data set [4], the bioavailability result is “modest”. Also, in data set [4], the systemic exposure entry was “modest”.
Turning to `Clc1ccccc1C(c1ccccc1)(c1ccccc1)n1ccnc1` [Clotrimazole], the IC50 in data set [5] is 8 µM; in [6], 8 µM and 8.2 µM; in data set [7], 12 µM. For the same compound, the water solubility result in data set [8] is given as “poor”.
Turning to `CC#CCC(C)[C@H](O)/C=C/[C@@H]1[C@H]2C/C(=C/CCCC(=O)O)C[C@H]2C[C@H]1O` (stereo partly drawn) [Iloprost], the IC50 in [1] (Homo sapiens) and in data set [2] (Homo sapiens) was over 40 µM throughout.
On to `CC(C)(C)c1ccc(C(=O)CCCN2CCC(OC(c3ccccc3)c3ccccc3)CC2)cc1` [Ebastine], for which, in [9], the “sensitization of NSCLC cells to chemotherapy” value was “sensitized NSCLC cells to chemotherapy”.
Take NMS-249: in [3], the half-maximal inhibitory concentration (IC50) is 0.29 µM.
In the case of `COc1ccc(CCN2CCC(Nc3nc4ccccc4n3Cc3ccc(F)cc3)CC2)cc1` [Astemizole], the concentration for half-maximal inhibition (IC50) in [5] is over 30 µM; in [6], over 30 µM; in [7] it was 25 µM. Besides, the tumor growth inhibition entry in data set [10] is given as “sufficient to inhibit tumor growth”. The “sensitization of NSCLC cells to chemotherapy” value in data set [9] is listed as “sensitized NSCLC cells to chemotherapy”.
In the case of Ivermectin, the IC50 in data set [5] was over 30 µM; in data set [6], over 30 µM; in data set [7] it was over 30 µM; in data set [1], 9.7 µM; in data set [2], over 40 µM. Besides, the “IC50 WT VCP/p97 ATPase activity” value in data set [7] is “did not show activity”.
On to `c1ccc(CNc2nc(NCc3ccccc3)c3ccccc3n2)cc1` [DBeQ], for which the results for the IC50 in data set [5], in data set [6] and in [7] were 5.5 µM, 11 µM and 3 µM, respectively. In addition, in data set [5] (E305Q vs WT), the “IC50 increase against the D1 mutant relative to wild-type VCP/p97” value stood at 1.8 fold. Also, the “IC50 increase against the D2 mutant relative to wild-type VCP/p97” value in data set [6] (E578Q vs WT) is 3.7 fold.
For the compound `CC(C)(C)NC(=O)[C@@H]1C[C@@H]2CCCC[C@@H]2CN1C[C@@H](O)[C@H](Cc1ccccc1)NC(=O)[C@H](CC(N)=O)NC(=O)c1ccc2ccccc2n1` [Saquinavir], the IC50 was over 30 µM in data set [5]; over 30 µM in data set [6]; over 30 µM in data set [7]; 10.7 µM in data set [1] (Homo sapiens); 20.8 µM in data set [2] (Homo sapiens).
